The assay concerns the target T1, rat CYP17 (Rattus norvegicus, UniProt P11715).
T1 construct: Rat testis tissue was collected and disrupted with 30 strokes of a glass homogenizer; from tissue; host or cells: rat testis (microsomal fraction)
T1 sequence (P11715 1-507): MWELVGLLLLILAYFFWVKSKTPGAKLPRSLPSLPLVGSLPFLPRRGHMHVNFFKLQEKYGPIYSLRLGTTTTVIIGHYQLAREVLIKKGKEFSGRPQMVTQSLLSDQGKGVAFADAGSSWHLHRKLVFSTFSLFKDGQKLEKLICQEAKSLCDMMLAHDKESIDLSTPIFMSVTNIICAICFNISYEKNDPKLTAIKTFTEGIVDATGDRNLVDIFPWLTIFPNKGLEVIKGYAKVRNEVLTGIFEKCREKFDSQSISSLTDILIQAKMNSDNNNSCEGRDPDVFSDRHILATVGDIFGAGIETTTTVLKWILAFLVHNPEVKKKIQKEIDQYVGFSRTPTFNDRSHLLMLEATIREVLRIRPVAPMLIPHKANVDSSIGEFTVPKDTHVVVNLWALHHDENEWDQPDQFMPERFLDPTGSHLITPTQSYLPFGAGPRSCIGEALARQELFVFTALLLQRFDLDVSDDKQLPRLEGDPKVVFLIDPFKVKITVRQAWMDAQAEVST
Kind of assay: CYP17 inhibition assay in rat testicular microsomes. It is filed as biochemical. Particulars: 3H3-17α-hydroxypregnenolone substrate, 60 minutes at 37° C. As for the experimental part: CYP17 Inhibition Assay in Rat Testicular Microsomes (Rat CYP17) or Yeast Microsome Overexpressing Human CYP17
A. Materials • 1. NADPH (Sigma): A working stock was prepared by adding 25 μL of 6.5 mM NADPH in each tube. The final concentration of NADPH used in the assay was 325 μM. • 2. Potassium Phosphate Buffer: One molar (1M) solutions of K2HPO4 and KH2PO4 were prepared. Eight mL of the 1 M KH2PO4 and 1.98 mL of the 1 M K2HPO4 were combined and the pH was adjusted to 7.4. • 3. ^3H3-17α-hydroxypregnenolone (American Radiolabeled Chemicals, Inc., stock 1 μCi/μL): A 1:1 dilution of ^3H3-17α-hydroxypregnenolone in ethanol was prepared by combining 100 μL ^3H3-17α-hydroxypregnenolone+100 μL ethanol for one complete 96 well plate. For the reaction, 2 μL of the diluted ^3H3-17α-hydroxypregnenolone was added in each tube, i.e., 1 μCi/reaction. • 4. Microsome Isolation Buffer: The microsome isolation buffer was prepared by combining 250 mM Sucrose, 5 mM EDTA, 10 mM Tris HCl, 4 mM DTT, and adjusting to pH 7.4. • 5. TEG Buffer: The TEG buffer was prepared by combining 50 mM Tris HCl, 1 mM EDTA, and 20% Glycerol. • 6. Rat Testicular Microsomes: Rat testis tissue was collected and disrupted with 30 strokes of a glass homogenizer on ice with 250 μL of microsome isolation buffer, followed by centrifugation at 10,000 g for 10 minutes at 4° C. The supernatant was collected and centrifuged at 100,000 g for 45 minutes at 4° C. The pellet was dissolved in TEG Buffer and the protein was quantified. The homogenized microsome samples were then frozen at −80° C. • 7. Yeast Microsomes which overexpress the human CYP17 enzyme were obtained from Premas Biotech, India.
Potassium phosphate buffer (470 μL) was prepared as described above and was added to each well of a deep well plate. The test compound was diluted using a TECAN liquid handler and 5 μL of diluted compound was transferred to each well (96 deep well/1 mL). A solution (25 μL) of 6.5 mM NADPH was added (final concentration of 325 µM in the assay). ^3H3-17α-hydroxypregnenolone (2 μL of the working stock) was added to each tube. The plates were then pre-incubated for 15 minutes at 37° C. Following the pre-incubation, either 5 μL rat testicular microsomes (150-160 μg) or 5 μL of yeast microsomes expressing human CYP17 (1.7 pmol), was added. Incubation was at 37° C. for 60 minutes in the presence of oxygen. The plates were then placed in ice and chloroform (500 μL) was added, mixed well and incubated at 4° C. for 20 minutes. The plates were then centrifuged at 1000 rpm for 15 minutes at 4° C.
A portion (300 μL) of the aqueous solution was collected and mixed with a 5% aqueous suspension of activated charcoal (300 μL). The plates were then incubated at 4° C. for 30 minutes, after which the plates were centrifuged at 1000 rpm for 15 minutes at 4° C. From this, 125 μL of the aqueous solution was collected and plated into a 96 well plate. Microscint™ 40 [125 μL, Perkin-Elmer; containing a mixture of a polymer based on alkylphenolethoxylate (20-40%), diethanolamine-phosphoric acid ester ammonium salt (10-20%), sodium dioctyl sulphosuccinate (2.5-10%), triethyl phosphate (2.5-10%), 3,6-dimethyl-4-octyne-3,6-diol (≦2.5%), a polymer based on nonylphenolethoxylate (≦2.5%), diisopropyl naphthalene isomers (40-60%), 2,5-diphenyloxazole (≦2.5%), and 9,10-dimethylanthracene] was added and mixed well. After 30 minutes of incubation, the samples were analyzed with a MicroBeta® Trilux microplate liquid scintillation counter and luminometer (Perkin-Elmer).
For the compound `CC(c1ccc(-c2ccoc2)cn1)n1ccnc1` (stereo not drawn) [Example 13, 2-(1-(1H-imidazol-1-yl)ethyl)-5-(furan-3-yl)pyridine], the IC50 is less than 50 nM.
As for `CCC(c1ccc(-c2cccc(F)c2)cn1)n1ccnc1` (stereo not drawn) [Example 45, 5-(3-Fluoro-phenyl)-2-(1-imidazol-1-yl-propyl)-pyridine], the IC50 was less than 50 nM.
On to `CC(=O)Nc1ccc(-c2ccc(C(C)n3ccnc3)nc2)cc1` (stereo not drawn) [Example 64, N-{4-[6-(1-Imidazol-1-yl-ethyl)-pyridin-3-yl]-phenyl}-acetamide], for which the IC50 lay in the range of 201 to 10000 nM.
`COc1ccc(-c2cccc(C(C)n3ccnc3)n2)cc1` (stereo not drawn) [Example 42, 2-(1-Imidazol-1-yl-ethyl)-6-(4-methoxy-phenyl)-pyridine] had an IC50 of less than 50 nM.
Take `CCOC(=O)c1ccc(-c2ncc(C(C)n3ccnc3)s2)cc1` (stereo not drawn) [Example 55, 4-[5-(1-Imidazol-1-yl-ethyl)-thiazol-2-yl]-benzoic acid ethyl ester]: the IC50 was less than 50 nM.
`CCC(c1ccc(-c2ccc(C#N)cc2)cn1)n1ccnc1` (stereo not drawn) [Example 17, 4-[6-(1-Imidazol-1-yl-propyl)-pyridin-3-yl]-benzonitrile] yielded an IC50 of less than 50 nM.
For the compound `COc1ccc(-c2ccc(C(CC(C)C)n3ccnc3)nc2)cc1` (stereo not drawn) [Example 62, 2-(1-Imidazol-1-yl-3-methyl-butyl)-5-(4-methoxy-phenyl)-pyridine], the IC50 fell in the range of 50 to 200 nM.
In the case of `CC(c1ccc(-c2cccc(F)c2)cn1)n1ccnc1` (stereo not drawn) [Example 57, 5-(3-Fluoro-phenyl)-2-(1-imidazol-1-yl-ethyl)-pyridine], the IC50 is less than 50 nM.
On to `CCC(c1ccc(-c2ccccc2F)cn1)n1ccnc1` (stereo not drawn) [Example 48, 5-(2-Fluoro-phenyl)-2-(1-imidazol-1-yl-propyl)-pyridine], for which the IC50 was less than 50 nM.
`CCC(c1cnc(-c2ccc(=O)[nH]c2)s1)n1ccnc1` (stereo not drawn) [Example 59, 5-[5-(1-Imidazol-1-yl-propyl)-thiazol-2-yl]-1H-pyridin-2-one] returned an IC50 of 50 to 200 nM.
The result for `COc1ccc(-c2ccc(C(C)n3ccnc3)nc2)cc1` (stereo not drawn) [Example 15, 2-(1-(1H-imidazol-1-yl)ethyl)-5-(4-methoxyphenyl)pyridine] reads 50 to 200 nM; that for `CC(c1ccc(-c2ccc(=O)n(C(C)C)c2)s1)n1ccnc1` (stereo not drawn) [Example 21, 5-(5-(1-(1H-imidazol-1-yl)ethyl)thiophen-2-yl)-1-isopropylpyridin-2(1H)-one], less than 50 nM.
For the compound `CC(c1cnc(-c2ccc(C(=O)O)cc2)s1)n1ccnc1` (stereo not drawn) [Example 65, 4-[5-(1-Imidazol-1-yl-ethyl)-thiazol-2-yl]-benzoic acid], the IC50 lay in the range of 201 to 10000 nM.
The result for `CC(c1ccc(-c2ccc(F)cc2)cn1)n1ccnc1` (stereo not drawn) [Example 34, 5-(4-Fluoro-phenyl)-2-(1-imidazol-1-yl-ethyl)-pyridine] reads less than 50 nM.
`CCC(c1cnc(-c2cccc(F)c2)s1)n1ccnc1` (stereo not drawn) [Example 1, 5-(1-(1H-imidazol-1-yl)propyl)-2-(3-fluorophenyl)thiazole] displayed an IC50 of less than 50 nM.
As to `COc1ccc(-c2ccc(C(C)n3ccnc3)s2)cc1` (stereo not drawn) [Example 36, 1-{1-[5-(4-Methoxy-phenyl)-thiophen-2-yl]-ethyl}-1H-imidazole], the IC50 was less than 50 nM.
For `CCC(c1ccc(-c2ccc(O)cc2)s1)n1ccnc1` (stereo not drawn) [Example 4, 4-(5-(1-(1H-imidazol-1-yl)propyl)thiophen-2-yl)phenol], the IC50 was less than 50 nM.
The compound `CCC(c1ccc(-c2ccc(OC)cc2)s1)n1ccnc1` (stereo not drawn) [Example 3, 1-(1-(5-(4-methoxyphenyl)thiophen-2-yl)propyl)-1H-imidazole] came in with an IC50 of less than 50 nM.
`CCC(c1cnc(-c2ccc(OC)nc2)s1)n1ccnc1` (stereo not drawn) [Example 51, 5-[5-(1-Imidazol-1-yl-propyl)-thiazol-2-yl]-2-methoxy-pyridine] yielded an IC50 of less than 50 nM.
On to `CC(C)(c1ccc(-c2ccc(O)cc2)s1)n1ccnc1` [Example 26, 4-[5-(1-Imidazol-1-yl-1-methyl-ethyl)-thiophen-2-yl]-phenol], for which the IC50 was less than 50 nM.
Consider `COc1ccc(-c2ccc(C(C)n3ccnc3)s2)cn1` (stereo not drawn) [Example 25, 5-[5-(1-Imidazol-1-yl-ethyl)-thiophen-2-yl]-2-methoxy-pyridine], for which the IC50 was less than 50 nM.
For `CC(c1cnc(-c2ccc(=O)[nH]c2)s1)n1ccnc1` (stereo not drawn) [Example 63, 5-[5-(1-Imidazol-1-yl-ethyl)-thiazol-2-yl]-1H-pyridin-2-one], the IC50 lay in the range of 201 to 10000 nM.
In the case of `CCC(c1cnc(-c2ccc(F)cc2)s1)n1ccnc1` (stereo not drawn) [Example 33, 2-(4-Fluoro-phenyl)-5-(1-imidazol-1-yl-propyl)-thiazole], the IC50 was less than 50 nM.
In turn, `CCC(c1ccc(-c2ccc(C(N)=O)cc2)cn1)n1ccnc1` (stereo not drawn) [Example 10, 4-(6-(1-(1H-imidazol-1-yl)propyl)pyridin-3-yl)benzamide] showed an IC50 of less than 50 nM.
Regarding `CCC(c1cnc(-c2ccc(F)cc2F)s1)n1ccnc1` (stereo not drawn) [Example 32, 2-(2,4-Difluoro-phenyl)-5-(1-imidazol-1-yl-propyl)-thiazole], the IC50 was less than 50 nM.
The result for `CCC(c1ccc(-c2ccc(C(=O)NC)cc2)cn1)n1ccnc1` (stereo not drawn) [Example 9, 4-(6-(1-(1H-imidazol-1-yl)propyl)pyridin-3-yl)-N-methylbenzamide] reads less than 50 nM; that for `CC(c1ccc(-c2ccc(F)cc2)nc1)n1ccnc1` (stereo not drawn) [Example 54, 2-(4-Fluoro-phenyl)-5-(1-imidazol-1-yl-ethyl)-pyridine], less than 50 nM.
Take `CCC(c1ccc(-c2ccc(CO)cc2)cn1)n1ccnc1` (stereo not drawn) [Example 41, {4-[6-(1-Imidazol-1-yl-propyl)-pyridin-3-yl]-phenyl}-methanol]: the IC50 is less than 50 nM.
In the case of `CCC(c1nnc(-c2ccc(F)cc2)s1)n1ccnc1` (stereo not drawn) [Example 19, 2-(1-(1H-imidazol-1-yl)propyl)-5-(4-fluorophenyl)-1,3,4-thiadiazole], the IC50 is less than 50 nM.
The result for `CCOC(=O)c1ccc(-c2ccc(C(CC)n3ccnc3)nc2)cc1` (stereo not drawn) [Example 5, Ethyl 4-(6-(1-(1H-imidazol-1-yl)propyl)pyridin-3-yl)benzoate] reads 50 to 200 nM; that for `CC(c1cnc(-c2ccc(C#N)cc2)s1)n1ccnc1` (stereo not drawn) [Example 22, 4-(5-(1-(1H-imidazol-1-yl)ethyl)thiazol-2-yl)benzonitrile], less than 50 nM.
The result for `CC(C)CC(c1ccc(-c2ccc(O)cc2)s1)n1ccnc1` (stereo not drawn) [Example 23, 4-(5-(1-(1H-imidazol-1-yl)-3-methylbutyl)-thiophen-2-yl)phenol] reads less than 50 nM; that for `COc1ccc(-c2ccc(C(C)(C)n3ccnc3)nc2)cc1` [Example 61, 2-(1-Imidazol-1-yl-1-methyl-ethyl)-5-(4-methoxy-phenyl)-pyridine], 50 to 200 nM.

What is called IC50 is the concentration that gives 50% inhibition. High values mean weaker potency in that assay, low ones greater potency in that assay.

Values taken from US9199975B2, “Biaryl imidazole derivatives for regulating CYP17” (Asana Biosciences, LLC, priority 2011, dated 2015).
